ChEMBL document CHEMBL1133071, “Potent in vitro methicillin-resistant Staphylococcus aureus activity of 2-(1H-indol-3-yl)quinoline derivatives” (2000)
Converted amounts (≈) assume the structure as drawn.

Experiments:
Assay type in all cases: functional
Enterococcus faecium = assay: Minimum inhibitory concentration against vancomycin resistant Enterococcus faecium (VRE)
Staphylococcus aureus [1] = assay: Minimum inhibitory concentration against methicillin resistant staphylococcus aureus (MRSA)
Staphylococcus aureus [2] = assay: The compound was evaluated in vitro for minimum inhibitory concentration against staphylococcus aureus HP-5827
Staphylococcus aureus [3] = assay: The compound was evaluated in vitro for minimum inhibitory concentration against staphylococcus aureus HP-5836

| SMILES | MIC (Enterococcus faecium) [mg/L] | MIC (Staphylococcus aureus [1]) [mg/L] | MIC (Staphylococcus aureus [2]) [mg/L] | MIC (Staphylococcus aureus [3]) [mg/L] |
| --- | --- | --- | --- | --- |
| Clc1ccc2ccc(-c3c[nH]c4ccc(Br)cc34)nc2c1 | > 25 | 0.6 (≈ 1.68 µM) |  |  |
| NCCNC(=O)c1cc(-c2c[nH]c3ccc(Br)cc23)nc2ccc(Cl)cc12.O=C(O)C(F)(F)F | 3.13 | 1.56 |  |  |
| Clc1ccc2c(Cl)cc(-c3c[nH]c4ccc(Br)cc34)nc2c1 | 3.13 (≈ 7.98 µM) | < 0.39 |  |  |
| Clc1ccc2nc(-c3c[nH]c4ccccc34)ccc2c1 | > 25 | 5 (≈ 17.9 µM) |  |  |
| Oc1ccc2[nH]cc(-c3ccc4cc(Cl)ccc4n3)c2c1 | > 25 | 12.5 (≈ 42.4 µM) |  |  |
| Clc1ccc2nc(-c3c[nH]c4c(Cl)cccc34)ccc2c1 | > 25 | > 25 |  |  |
| OCc1cc(-c2c[nH]c3ccc(Br)cc23)nc2cc(Cl)ccc12 | 2.5 (≈ 6.45 µM) | 0.31 (≈ 0.8 µM) |  |  |
| Clc1ccc2nc(-c3c[nH]c4ccc(Cl)cc34)ccc2c1 | > 25 | 0.78 (≈ 2.49 µM) |  |  |
| NCCNC(=O)c1cc(-c2c[nH]c3ccc(Br)cc23)nc2c(Cl)cccc12.O=C(O)C(F)(F)F | 3.13 | 1.56 |  |  |
| O=C(Oc1ccc2[nH]cc(-c3ccc4cc(Cl)ccc4n3)c2c1)c1ccccc1 | > 25 | 1.56 (≈ 3.91 µM) |  |  |
| NCCNC(=O)c1cc(-c2c[nH]c3ccc(Br)cc23)nc2cc(Cl)cc(Cl)c12.O=C(O)C(F)(F)F | 1.56 | 0.78 |  |  |
| NCCNC(=O)c1cc(-c2c[nH]c3ccc(Br)cc23)nc2cc(Cl)c(C#CCN3CCCCC3)cc12.O=C(O)C(F)(F)F | 6.25 | 3.13 | 1.56 | 3.13 |
| NCc1cc(-c2c[nH]c3ccc(Br)cc23)nc2cc(Cl)ccc12.O=C(O)C(F)(F)F | 1.56 | 0.78 | 0.39 | 0.39 |
| NCCNC(=O)c1cc(-c2c[nH]c3ccc(Br)cc23)nc2cc3c(cc12)OCO3.O=C(O)C(F)(F)F |  | 12.5 |  |  |
| Clc1ccc2nc(-c3c[nH]c4ccc(Br)cc34)ccc2c1 | > 25 | 0.62 (≈ 1.73 µM) |  |  |
| COc1ccc2[nH]cc(-c3ccc4cc(Cl)ccc4n3)c2c1 | > 25 | > 25 |  |  |
| NCCNC(=O)c1cc(-c2c[nH]c3ccc(Br)cc23)nc2ccccc12.O=C(O)C(F)(F)F | 25 | 12.5 |  |  |
| NCCNC(=O)c1cc(-c2c[nH]c3ccc(Br)cc23)nc2c(Cl)c(Cl)ccc12.O=C(O)C(F)(F)F | 0.78 | 0.78 |  |  |
| Fc1ccc2[nH]cc(-c3ccc4cc(Cl)ccc4n3)c2c1 | 12.5 (≈ 42.1 µM) | 0.78 (≈ 2.63 µM) |  |  |
| Fc1ccc2c(-c3ccc4cc(Cl)ccc4n3)c[nH]c2c1 | 6.25 (≈ 21.1 µM) | 1.56 (≈ 5.26 µM) |  |  |
| NCCNC(=O)c1cc(-c2c[nH]c3ccc(Br)cc23)nc2cc(Cl)ccc12.O=C(O)C(F)(F)F | 1.56 | 0.78 | 0.78 | 0.39 |
| O=C(O)c1cc(-c2c[nH]c3ccc(Br)cc23)nc2cc(Cl)ccc12 | 25 (≈ 62.2 µM) | 25 (≈ 62.2 µM) |  |  |
| N#Cc1ccc2[nH]cc(-c3ccc4cc(Cl)ccc4n3)c2c1 | > 25 | > 25 |  |  |
| NCCNC(=O)c1cc(-c2c[nH]c3ccc(Br)cc23)nc2c(F)cccc12.O=C(O)C(F)(F)F | 12.5 | 6.25 |  |  |
| NCCNC(=O)c1cc(-c2c[nH]c3ccc(Br)cc23)nc2cc(F)ccc12.O=C(O)C(F)(F)F | 3.13 | 3.13 |  |  |
| Fc1cccc2[nH]cc(-c3ccc4cc(Cl)ccc4n3)c12 | > 25 | > 25 |  |  |
